Measured values: ChEMBL document CHEMBL5137117, “Cytotoxic Cyclotides from Anchietea pyrifolia, a South American Plant Species” (J Nat Prod, 2022)
Bridge positions count the residues as written; N and C are the ends. Peptide text beside a SMILES is read from it.

What was measured:
[1] = Cytotoxicity against human HCT116-p53-null cells assessed as inhibition of cell growth measured after 72 hrs by MTT assay; type: functional, cell-based
[2] = tested on: HCT-116; assay: Cytotoxicity against human HCT-116 cells assessed as inhibition of cell growth measured after 72 hrs by MTT assay; type: functional, cell-based; conditions: HCT-116, 72 h
[3] = tested on: MCF7; assay: Cytotoxicity against human MCF7 cells assessed as inhibition of cell growth measured after 72 hrs by MTT assay; type: functional, cell-based; conditions: MCF7, 72 h
[4] = Hemolytic activity in human red blood cells incubated for 2 hrs by microplate reader assay; type: toxicity, cell-based, Erythrocyte; conditions: red blood cells (erythrocytes), read-out: HD50
[5] = Hemolytic activity in human red blood cells at 78 uM incubated for 2 hrs by microplate reader assay relative to control; type: toxicity, cell-based, Erythrocyte; conditions: red blood cells (erythrocytes), read-out: Activity

CC[C@H](C)[C@@H]1NC(=O)[C@H](C)NC(=O)[C@H](CO)NC(=O)[C@H](CO)NC(=O)[C@H]([C@@H](C)CC)NC(=O)[C@@H]2CSSC[C@@H]3NC(=O)[C@H](C(C)C)NC(=O)[C@H](CCCCN)NC(=O)[C@H](CC(N)=O)NC(=O)[C@H](CCCCN)NC(=O)[C@@H]4CSSC[C@H](NC(=O)[C@H](CO)NC(=O)[C@H](CCC(=O)O)NC(=O)CNC(=O)[C@H](CSSC[C@H](NC(=O)CNC1=O)C(=O)N[C@@H](CO)C(=O)N4)NC(=O)[C@@H]1CCCN1C(=O)[C@H]([C@@H](C)CC)NC(=O)CNC(=O)[C@H](CC(N)=O)NC(=O)[C@H](CCCNC(=N)N)NC(=O)[C@H](Cc1ccc(O)cc1)NC3=O)C(=O)N[C@@H](C(C)C)C(=O)N[C@@H](Cc1c[nH]c3ccccc13)C(=O)N[C@@H]([C@@H](C)CC)C(=O)N1CCC[C@H]1C(=O)N2 (cyclo(AIGCSCKNKVCYRNGIPCGESCVWIPCISS); disulfide 4-18, 6-22, 11-27)
IC50 [1]: 2100 nM | IC50 [2]: 1400 nM | IC50 [3]: 7100 nM | HC50 at 2 h [4]: > 156 µM

COc1cccc2c1C(=O)c1c(O)c3c(c(O)c1C2=O)C[C@@](O)(C(=O)CO)C[C@@H]3O[C@H]1C[C@H](N)[C@H](O)[C@H](C)O1 [DOXORUBICIN]
IC50 [3]: 500 nM

CC[C@H](C)[C@@H]1NC(=O)[C@H](C)NC(=O)[C@H](C)NC(=O)[C@H](CO)NC(=O)[C@H]([C@@H](C)CC)NC(=O)[C@@H]2CSSC[C@@H]3NC(=O)[C@H](C(C)C)NC(=O)[C@H](CCCCN)NC(=O)[C@H](CC(N)=O)NC(=O)[C@H](CCCCN)NC(=O)[C@@H]4CSSC[C@H](NC(=O)[C@H](CO)NC(=O)[C@H](CCC(=O)O)NC(=O)CNC(=O)[C@H](CSSC[C@H](NC(=O)CNC1=O)C(=O)N[C@@H](CO)C(=O)N4)NC(=O)[C@@H]1CCCN1C(=O)[C@H]([C@@H](C)CC)NC(=O)CNC(=O)[C@H](CC(N)=O)NC(=O)[C@H](CCCNC(=N)N)NC(=O)[C@H](Cc1ccc(O)cc1)NC3=O)C(=O)N[C@@H](C(C)C)C(=O)N[C@@H](Cc1c[nH]c3ccccc13)C(=O)N[C@@H]([C@@H](C)CC)C(=O)N1CCC[C@H]1C(=O)N2 (cyclo(AAIGCSCKNKVCYRNGIPCGESCVWIPCIS); disulfide 5-19, 7-23, 12-28)
IC50 [1]: 1200 nM | IC50 [2]: 800 nM | IC50 [3]: 5600 nM | HC50 at 2 h [4]: > 156 µM | hemolysis at 2 h, 78 µM [5]: 23%

CC[C@H](C)[C@@H]1NC(=O)[C@H](CO)NC(=O)[C@H](CC(N)=O)NC(=O)[C@H](CCCCN)NC(=O)[C@H](Cc2ccc(O)cc2)NC(=O)[C@@H]2CSSC[C@@H]3NC(=O)[C@@H]4CCCN4C(=O)[C@H]([C@@H](C)CC)NC(=O)[C@H](Cc4c[nH]c5ccccc45)NC(=O)[C@H](C(C)C)NC(=O)[C@@H]4CSSC[C@H](NC(=O)[C@H](CO)NC(=O)[C@H](CSSC[C@H](NC(=O)[C@@H]5CCCN5C1=O)C(=O)NCC(=O)N[C@@H](CCC(=O)O)C(=O)N[C@@H](CO)C(=O)N4)NC(=O)CNC(=O)[C@H](C)NC(=O)[C@H](CC(C)C)NC(=O)[C@H](C)NC(=O)[C@H]([C@@H](C)O)NC(=O)[C@H](C(C)C)NC(=O)[C@H]([C@@H](C)O)NC3=O)C(=O)N[C@@H](CCCCN)C(=O)N[C@@H](CC(N)=O)C(=O)N[C@@H](CCCCN)C(=O)N[C@@H](C(C)C)C(=O)N2 (cyclo(AGCSCKNKVCYKNSIPCGESCVWIPCTVTAL); disulfide 3-17, 5-21, 10-26)
IC50 [1]: 2300 nM | IC50 [2]: 1400 nM | IC50 [3]: 7300 nM | HC50 at 2 h [4]: > 78 µM | hemolysis at 2 h, 78 µM [5]: < 50%

CC[C@H](C)[C@@H]1NC(=O)[C@H](C)NC(=O)[C@H]([C@@H](C)O)NC(=O)[C@H](C(C)C)NC(=O)[C@H]([C@@H](C)O)NC(=O)[C@@H]2CSSC[C@@H]3NC(=O)[C@H](C(C)C)NC(=O)[C@H](CCCCN)NC(=O)[C@H](CO)NC(=O)[C@H](CCCCN)NC(=O)[C@@H]4CSSC[C@H](NC(=O)[C@H](CO)NC(=O)[C@H](CCC(=O)O)NC(=O)CNC(=O)[C@H](CSSC[C@H](NC(=O)CNC(=O)[C@H]([C@@H](C)CC)NC1=O)C(=O)N[C@@H](CO)C(=O)N4)NC(=O)[C@@H]1CCCN1C(=O)[C@H](CC(C)C)NC(=O)CNC(=O)[C@H](CC(N)=O)NC(=O)[C@H](CCCCN)NC(=O)[C@H](Cc1ccc(O)cc1)NC3=O)C(=O)N[C@@H](C(C)C)C(=O)N[C@@H](Cc1ccccc1)C(=O)N[C@@H](CC(C)C)C(=O)N1CCC[C@H]1C(=O)N2 (cyclo(AIIGCSCKSKVCYKNGLPCGESCVFLPCTVT); disulfide 5-19, 7-23, 12-28)
IC50 [1]: 1300 nM | IC50 [2]: 1100 nM | IC50 [3]: 5800 nM

CC[C@H](C)[C@@H]1NC(=O)CNC(=O)[C@H](CO)NC(=O)[C@H]([C@@H](C)CC)NC(=O)[C@@H]2CSSC[C@@H]3NC(=O)[C@H](C(C)C)NC(=O)[C@H](CCCCN)NC(=O)[C@H](CC(N)=O)NC(=O)[C@H](CO)NC(=O)[C@@H]4CSSC[C@H](NC(=O)[C@H](CO)NC(=O)[C@H](CCC(=O)O)NC(=O)CNC(=O)[C@H](CSSC[C@H](NC(=O)CNC(=O)[C@H](CC(C)C)NC1=O)C(=O)N[C@@H](CO)C(=O)N4)NC(=O)[C@@H]1CCCN1C(=O)[C@H](C(C)C)NC(=O)[C@H](CO)NC(=O)CNC(=O)[C@H](CC(N)=O)NC(=O)[C@H](Cc1ccc(O)cc1)NC(=O)[C@H](Cc1ccc(O)cc1)NC3=O)C(=O)N[C@@H](C(C)C)C(=O)N[C@@H](Cc1c[nH]c3ccccc13)C(=O)N[C@@H]([C@@H](C)CC)C(=O)N1CCC[C@H]1C(=O)N2 (cyclo(CGESCVWIPCISGILGCSCSNKVCYYNGSVP); disulfide 1-17, 5-19, 10-24)
IC50 [1]: 2600 nM | IC50 [2]: 2300 nM | IC50 [3]: 5100 nM | HC50 at 2 h [4]: 22 µM | hemolysis at 2 h, 78 µM [5]: 87%
